According to patent US8080553B2, “Methods and reagents for the treatment of immunoinflammatory disorders” (Zalicus Inc., priority 2003, dated 2011):
Values joined by “and” are separate entries in the source; they are usually repeats but may differ in a detail not shown here. Equal entries are not always repeated. Structures can show the parent of a compound that is named as a salt. Where two headings read alike, the source gives them in different places.

What was measured:
[1] = test system: TNFα secretion in white blood cells from human buffy coat; assay: TNFα secretion assay, cells stimulated with phorbol 12-myristate 13-acetate and ionomycin (Tables 7-26); conditions: for inhibition at 0.3 µM: read-out: percent inhibition of TNFα secretion, dipyridamole 0.3 μM; for inhibition at 19 µM: read-out: percent inhibition of TNFα secretion, dipyridamole 19 μM; for inhibition at 39 µM: read-out: percent inhibition of TNFα secretion, dipyridamole 39 μM; for percent inhibition of TNFα secretion: dipyridamole 0 μM
Protocol: (§1) Drugs were added to the indicated concentration. […] The plate was then washed again with 0.1% Tween 20/PBS. An HRP-luminescent substrate was added to each well, and the light intensity of each well was measured using a plate luminometer.

[2] = test system: TNFα secretion in white blood cells from human buffy coat
Protocol: as §1

[3] = Homo sapiens, Nortriptyl (μM): 0, 0.52, 1, 2.1, 4.2, 8.3, 17, 33, 67
[4] = Homo sapiens, Ro-20-1724 (μM) by grid row: r5 0, r6 0.28, r7 0.56, r8 1.1, r9 2.2, r10 4.5, r11 9, r12 18, r13 36
[5] = Homo sapiens, amoxapine (μM) by grid row: r5 0, r6 0.25, r7 0.5, r8 1, r9 2, r10 4, r11 8, r12 16, r13 32
[6] = Homo sapiens, fluoxetine (μM) by grid row: r5 0, r6 0.45, r7 0.9, r8 1.8, r9 3.6, r10 7.2, r11 14, r12 29, r13 58
[7] = Homo sapiens, paroxetine (μM): 0, 0.21, 0.42, 0.83, 1.7, 3.3, 6.7, 13, 27

## CCCC1O[C@@H]2C[C@H]3[C@@H]4CCC5=CC(=O)C=C[C@]5(C)[C@H]4[C@@H](O)C[C@]3(C)[C@]2(C(=O)CO)O1 (stereo partly shown) [Budesonide]
[1]; Homo sapiens, read-out: percent inhibition of TNFα secretion, budesonide 35 nM, dipyridamole (μM as printed) by grid row: r5 0, r6 30, r7 121, r8 486, r9 1943, r10 7773
  inhibition at […]: 36.3%

## OCCN(CCO)c1nc(N2CCCCC2)c2nc(N(CCO)CCO)nc(N3CCCCC3)c2n1 [Dipyridamole, 2,6-bis(diethanolamino)-4,8-dipiperidinopyrimido(5,4-d)pyrimidine]
[1]; [3]
  inhibition at 0.3 µM: 14%
  inhibition at 19 µM: 64%
  inhibition at 39 µM: 80%
[1]; [4]
  inhibition at 0.3 µM: -1.96%
  inhibition at 19 µM: 64%
[1]; [5]
  inhibition at 0.3 µM: 19%
  inhibition at 39 µM: 78%
[1]; [6]
  inhibition at 0.3 µM: 18%
  inhibition at 19 µM: 62%
  inhibition at 39 µM: 76%
[1]; [7]
  inhibition at 0.3 µM: 21%
  inhibition at 19 µM: 60%
  inhibition at 39 µM: 76%

## C[C@H]1C[C@H]2[C@@H]3CCC4=CC(=O)C=C[C@]4(C)[C@@]3(F)[C@@H](O)C[C@]2(C)[C@@]1(O)C(=O)CO [Betamethasone]
[2]
  inhibition: 34.9% and 35.2%

## COc1ccc(C2CNC(=O)C2)cc1OC1CCCC1 (stereo not shown) [Rolipram, 4-[3-(cyclopentyloxy)-4-methoxyphenyl]-2-pyrrolidone]
[1]; Homo sapiens, read-out: percent inhibition of TNFα secretion, rolipram 0.5 μM, dipyridamole (μM): 0, 0.15, 0.3, 0.61, 1.2, 2.4, 4.9, 9.7, 19
  inhibition at 0.5 µM: 36.8%
[1]; Homo sapiens, read-out: percent inhibition of TNFα secretion, rolipram 1 μM, dipyridamole (μM): 0, 0.15, 0.3, 0.61, 1.2, 2.4, 4.9, 9.7, 19
  inhibition at 1 µM: 38.9%

## C[C@]12C=CC(=O)C=C1CC[C@@H]1[C@@H]2[C@@H](O)C[C@@]2(C)[C@H]1CC[C@]2(O)C(=O)CO [Prednisolone]
[1]; Homo sapiens, read-out: percent inhibition of TNFα secretion, prednisolone 0.5 μM, dipyridamole (μM) by grid row: r5 0, r6 0.3, r7 0.61, r8 1.2, r9 2.4, r10 4.9, r11 9.7, r12 19, r13 39
  inhibition at 0.5 µM: 29.9%

## CN1CCC(=C2c3ccccc3C=Cc3ccccc32)CC1 [Cyproheptadine HCl]
[1]; cyproheptadine HCl (μM) by grid row: r5 0, r6 0.24, r7 0.48, r8 0.96, r9 1.9, r10 3.9, r11 7.7, r12 15, r13 31
  percent inhibition of TNFα secretion: 29%

## CCOC(=O)N1CCC(=C2c3ccc(Cl)cc3CCc3cccnc32)CC1 [Loratadine]
[1]; loratadine (μM) by grid row: r5 0, r6 0.2, r7 0.41, r8 0.82, r9 1.6, r10 3.3, r11 6.5, r12 13, r13 26
  percent inhibition of TNFα secretion: 31%

## CC(C)C(=O)c1c(C(C)C)nn2ccccc12 [Ibudilast]
[1]; Homo sapiens, read-out: percent inhibition of TNFα secretion, ibudilast 0.5 μM, dipyridamole (μM): 0, 0.15, 0.3, 0.61, 1.2, 2.4, 4.9, 9.7, 19
  inhibition at 0.5 µM: 22.9%
[1]; Homo sapiens, read-out: percent inhibition of TNFα secretion, ibudilast 1 μM, dipyridamole (μM): 0, 0.15, 0.3, 0.61, 1.2, 2.4, 4.9, 9.7, 19
  inhibition at 1 µM: 37.4%
[1]; Homo sapiens, read-out: percent inhibition of TNFα secretion, ibudilast 2 μM, dipyridamole (μM): 0, 0.15, 0.3, 0.61, 1.2, 2.4, 4.9, 9.7, 19
  inhibition at 2 µM: 42.9%
[1]; Homo sapiens, read-out: percent inhibition of TNFα secretion, ibudilast 4 μM, dipyridamole (μM): 0, 0.15, 0.3, 0.61, 1.2, 2.4, 4.9, 9.7, 19
  inhibition at 4 µM: 45.9%
[1]; Homo sapiens, read-out: percent inhibition of TNFα secretion, ibudilast 8 μM, dipyridamole (μM): 0, 0.15, 0.3, 0.61, 1.2, 2.4, 4.9, 9.7, 19
  inhibition at 8 µM: 53.8%
